In ChEMBL document CHEMBL3580620, “Anti-inflammatory and antitumor phenylpropanoid sucrosides from the seeds of Raphanus sativus” (Bioorg Med Chem Lett, 2014):
In brackets after ≈: the same amount, converted by molar mass.

Assays:
[1] = system: BV-2; experiment: Inhibition of LPS-induced nitric oxide production in mouse BV2 cells treated for 30 mins prior to LPS stimulation for 24 hrs by Griess assay; format: functional, cell-based
[2] = Cytotoxicity against mouse BV2 cells assessed as inhibition of cell viability up to 50 uM by MTT assay; format: cell-based; details: bv-2
[3] = system: A549; experiment: Cytotoxicity against human A549 cells assessed as cell growth inhibition after 48 hrs by SRB assay; format: functional, cell-based; details: A549, 48 h
[4] = system: SK-OV-3; experiment: Cytotoxicity against human SKOV3 cells assessed as cell growth inhibition after 48 hrs by SRB assay; format: functional, cell-based; details: SK-OV-3, 48 h
[5] = system: SK-MEL-2; experiment: Cytotoxicity against human SK-MEL-2 cells assessed as cell growth inhibition after 48 hrs by SRB assay; format: functional, cell-based; details: SK-MEL-2, 48 h
[6] = system: HCT-15; experiment: Cytotoxicity against human HCT15 cells assessed as cell growth inhibition after 48 hrs by SRB assay; format: functional, cell-based; details: HCT-15, 48 h
[7] = Antioxidant activity assessed as DPPH radical scavenging activity after 10 mins by spectrophotomteric analysis; format: physicochemical
[8] = system: RAW264.7; experiment: Inhibition of LPS-induced nitric oxide production in mouse RAW264.7 cells at 100 uM; format: functional
[9] = Cytotoxicity against mouse BV2 cells assessed as inhibition of cell viability by MTT assay; format: cell-based, BV-2; details: read-out: INH

IC50 [1] [µM] | IC50 [7] | SMILES | Activity [2] | IC50 [3] [µM] | IC50 [4] [µM] | IC50 [5] [µM] | IC50 [6] [µM] | inhibition at 100 µM [8] [%] | cytotoxicity [9] [%]
48.9 | 27.1 µg/mL (≈ 28.2 µM) | COc1cc(/C=C/C(=O)OC[C@H]2O[C@H](O[C@]3(CO)O[C@H](CO)[C@@H](OC(=O)/C=C/c4cc(OC)c(O)c(OC)c4)[C@@H]3OC(=O)/C=C/c3cc(OC)c(O)c(OC)c3)[C@H](O)[C@@H](O)[C@@H]2O)cc(OC)c1O | Non-toxic | 25.9 | 19.2 | 18.6 | 14.1 |  | 
 |  | COc1cc(/C=C/CO[C@@H]2O[C@H](CO)[C@@H](O)[C@H](O)[C@H]2O)ccc1O |  |  |  |  |  | 50 | 
34.8 | 23.05 µg/mL (≈ 24.8 µM) | COc1cc(/C=C/C(=O)O[C@H]2[C@H](OC(=O)/C=C/c3cc(OC)c(O)c(OC)c3)[C@@H](CO)O[C@@]2(CO)O[C@H]2O[C@H](COC(=O)/C=C/c3cc(OC)c(O)c(OC)c3)[C@@H](O)[C@H](O)[C@H]2O)ccc1O | Non-toxic | 26.9 | 23.8 | 16.7 | 18.9 |  | 
37.1 | 29.63 µg/mL (≈ 39.3 µM) | COc1cc(/C=C/C(=O)OC[C@H]2O[C@H](O[C@]3(CO)O[C@H](CO)[C@@H](O)[C@@H]3OC(=O)/C=C/c3cc(OC)c(O)c(OC)c3)[C@H](O)[C@@H](O)[C@@H]2O)cc(OC)c1O | Non-toxic | 21.1 | 16.7 | 14.2 | 17.2 |  | 
45.5 | 35.33 µg/mL (≈ 50.9 µM) | COc1cc(/C=C/C(=O)OC[C@H]2O[C@H](O[C@]3(CO)O[C@H](CO)[C@@H](O)[C@@H]3OC(=O)/C=C/c3ccc(O)c(OC)c3)[C@H](O)[C@@H](O)[C@@H]2O)ccc1O | Non-toxic | > 30 | 20 | 27.9 | 17.8 |  | 
 |  | OC[C@H]1O[C@@H](OC/C=C/c2ccc(O)cc2)[C@H](O)[C@@H](O)[C@@H]1O |  |  |  |  |  | 50 | 
 |  | COc1cccc2c1C(=O)c1c(O)c3c(c(O)c1C2=O)C[C@@](O)(C(=O)CO)C[C@@H]3O[C@H]1C[C@H](N)[C@H](O)[C@H](C)O1 [DOXORUBICIN] |  |  | 0.012 | 0.001 |  |  | 
> 200 | Not Active | OC[C@H]1O[C@@](CO)(O[C@H]2O[C@H](CO)[C@@H](O)[C@H](O)[C@H]2O)[C@@H](O)[C@@H]1O [SUCROSE] | Non-toxic | > 30 | > 30 | > 30 | > 30 |  | 
 | 7.63 µg/mL (≈ 43.3 µM) | O=C1O[C@H]([C@@H](O)CO)C(O)=C1O [ASCORBIC ACID] |  |  |  |  |  |  | 
21.6 | 44.59 µg/mL (≈ 46.4 µM) | COc1cc(/C=C/C(=O)OC[C@H]2O[C@@](CO)(O[C@H]3O[C@H](COC(=O)/C=C/c4cc(OC)c(O)c(OC)c4)[C@@H](O)[C@H](O)[C@H]3O)[C@@H](OC(=O)/C=C/c3cc(OC)c(O)c(OC)c3)[C@@H]2O)cc(OC)c1O | Non-toxic | 20.8 | 6.71 | 9.5 | 12.4 |  | 
27 | 54.98 µg/mL (≈ 71.5 µM) | COc1cc(/C=C/C(=O)OC[C@H]2O[C@H](O[C@]3(CO)O[C@H](CO)[C@@H](O)[C@@H]3OC(=O)/C=C/c3cc(OC)c(OC)c(OC)c3)[C@H](O)[C@@H](O)[C@@H]2O)cc(OC)c1O | Non-toxic | 26 | 24.6 | 21.6 | 18.3 |  | 
37.4 | 78.2 µg/mL (≈ 143 µM) | COc1cc(/C=C/C(=O)O[C@H]2[C@H](O)[C@@H](CO)O[C@@]2(CO)O[C@H]2O[C@H](CO)[C@@H](O)[C@H](O)[C@H]2O)cc(OC)c1O |  | 23.9 | 20.5 | 23.9 | 27 |  | 15
